Assay results reported in publication PMC8124365 (International Journal of Molecular Sciences, 2021).
Where two headings read alike, the source gives them in different places.

What was measured:
C4-2 = conditions: cited from earlier work; for TI: NOD-SCID gamma (C4-2), median survival, ref Stuparu et al., 2020 [59]; for Toxicity in treated mice: radiosensitive model, ref [59]
[1] = tested on: subcutaneous tumour models; conditions: 0.02–0.1 MBq; ref [59],[61]; cited from earlier work
RM1-PGLS [2] = conditions: cited from earlier work
C4-2 xenografts = assay: Biodistribution of radioligand in mice with C4-2 xenografts; format: in vivo, Hsd:Athymic Nude-Foxn1^nu mice; conditions: free ^212Pb control
From the text: For the biodistribution and therapy studies, 105 male Hsd:Athymic Nude-Foxn1^nu mice bred at the Department of Comparative Medicine at the Norwegian Radium Hospital (Oslo University Hospital, Oslo, Norway) were used. For the toxicity study, 13 male BALB/cJRj mice from Janvier Labs (Le Genest-Saint-Isle, France) were used. The studies were approved by the Institutional Committee on Research Animal Care (Department of Comparative Medicine, Oslo University Hospital) and the Norwegian Food Safety Authority (Brumunddal, Norway, approval: FOTS ID 22197, 20/49651). All procedures and experiments involving animals in this study were performed in accordance with the Interdisciplinary Principles and Guidelines for the Use of Animals in Research, Marketing and Education (New York Academy of Sciences, New York, USA) and the EU Directive 2010/63/EU for animal experiments as well as the ARRIVE guidelines. The animals were maintained under specific pathogen-free conditions with ad libitum access to food and water. Cages (1–5 mice per cage) were housed in a scantainer, which was maintained at constant temperature (24 °C) and humidity (60%). The mice were around 4–6 weeks in age and weighed 25–35 g at the start of the study.
Mice were inoculated subcutaneously in both flanks with 10 × 10^6 C4-2 cells in supplement-free RPMI1640 medium mixed 1:1 with Matrigel Matrix (Corning, NY, USA) in a total volume of 200 µL. In one of the biodistribution experiments, mice were inoculated with 5 × 10^6 PC-3 cells (200 µL, 1:1 medium:Matrigel Matrix) as a negative control. The tumours were allowed to grow to reach a volume of 300–1500 mm^3 for the biodistribution studies and a volume of 30–300 mm^3 for the therapy studies, and tumour-bearing mice were randomised based on tumour size before radioligand injection. Mice were monitored 2–3 times per week for changes in body weight and tumour size and were euthanised by cervical dislocation if any of the following humane end points were reached: >20% weight loss from initial body weight, rapid weight loss (>10% within 2 days), tumours exceed 20 mm in any direction, ulcerate or interfere with normal behaviour, or any signs of severe sickness or discomfort.
At various time points after injection (from 15 min up to 48 h), organs/tissues were harvested, and radioligand uptake was calculated as a percentage of injected dose per gram tissue (%ID/g). Effective half-lives in selected organs were obtained by fitting monoexponential functions to the biodistribution data (Bq/g vs. time), normalised to 1 MBq/kg, (1) y(t)=a×e^−ln(2)×t/Teffective
The biological half-lives were then calculated by the following formula:(2) 1/Teffective=1/Tbiological+1/Tphysical

LNCaP [3] = conditions: cited from earlier work; for Kidney Uptake / Tumour Uptake: NOD-SCID gamma (LNCaP), ref Kuo et al., 2018 [30]
LNCaP [4] = conditions: cited from earlier work; for Kidney Uptake / Tumour Uptake: BALB/c nu/nu (LNCaP), ref Kelly et al., 2018 [32]
LNCaP [5] = tested on: LNCaP; design: method as in Benesova et al., 2015 [31]; conditions: BALB/c nu/nu (LNCaP), ref Benesova et al., 2015 [31], cited from earlier work
PC-3 PIP [6] = tested on: PC-3 PIP; design: method as in Benesova et al., 2018 [33]; conditions: Athymic nude BALB/c (PC-3 PIP), ref Benesova et al., 2018 [33], cited from earlier work
PC-3 PIP [7] = tested on: PC-3 PIP; design: method as in Umbricht et al., 2018 [60]; conditions: Athymic nude BALB/c (PC-3 PIP), median survival, ref Umbricht et al., 2018 [60], cited from earlier work
RM1-PGLS [8] = tested on: RM1-PGLS; design: method as in Fendler et al., 2017 [36]; conditions: C57BL/6 (RM1-PGLS), median survival, ref Fendler et al., 2017 [36], cited from earlier work
tumour = tested on: tumour; design: method as in Fendler et al. [36]; conditions: after 4 days; ref Fendler et al. [36]; cited from earlier work
LNCaP [9] = tested on: LNCaP; design: method as in Kuo et al., 2018 [30]; conditions: 18.5 MBq; NOD rag gamma (LNCaP); median survival; ref Kuo et al., 2018 [30]; cited from earlier work
PC-3 PIP [10] = tested on: PC-3 PIP; design: method as in Banerjee et al., 2019 [3]; conditions: 111 MBq; NOD-SCID gamma (PC-3 PIP); median survival; ref Banerjee et al., 2019 [3]; cited from earlier work

O=C([O-])CC[C@H](NC(=O)N[C@@H](CCCCNC(=O)[C@H](Cc1ccc2ccccc2c1)NC(=O)[C@H]1CC[C@H](CNC(=O)CN2CCN(CC(=O)[O-])CCN(CC(=O)[O-])CCN(CC(=O)[O-])CC2)CC1)C(=O)[O-])C(=O)[O-].[225Ac].[H+].[H+].[H+] [^225Ac-PSMA-617]
TI (C4-2; 0.02 MBq (0.13 MBq/nmol)): 3.6 | Toxicity in treated mice (C4-2; 0.02 and 0.04 MBq): transient weight loss | TI (C4-2; 0.04 MBq (0.13 MBq/nmol)): 6.7 | TI (C4-2; 0.10 MBq (0.13 MBq/nmol)): 4.2 | Toxicity in treated mice (C4-2; 0.10 MBq): severe weight loss | Therapeutic Index Range [1]: 1.1–6.7 | TI (RM1-PGLS [2]; 0.03 MBq (0.13 MBq/nmol), Athymic nude mice (RM1-PGLS), median survival, ref Czernin et al., 2020 [61]): 1.1 | Toxicity in treated mice (RM1-PGLS [2]; 0.03 MBq, more radioresistant model, ref [61]): no signs of toxicity

[212Pb+2] [^212Pb^2+]
Uptake in kidneys (C4-2 xenografts; 1–8 h post injection): 34.2–49.0 %ID/g | Uptake in liver (C4-2 xenografts; 1–8 h post injection): 8.3–9.1 %ID/g | Uptake in bones (C4-2 xenografts; at 1–4 h): 7.3–10.4 %ID/g | Uptake in bones (C4-2 xenografts; at 8 h): 1.0–2.6 %ID/g

O=C([O-])CN1CCN(CC(=O)[O-])CCN(CC(=O)NCC2CCC(C(=O)N[C@@H](Cc3ccc4ccccc4c3)C(=O)NCCCC[C@H](NC(=O)N[C@@H](CCC(=O)O)C(=O)O)C(=O)O)CC2)CCN(CC(=O)[O-])CC1.[177Lu+3] (stereo partly drawn) [^177Lu-PSMA-617]
Kidney Uptake (LNCaP [3]; 1h): 97.2 ± 19.4 %ID/G | Tumour Uptake (LNCaP [3]; 1h): 15.1 ± 5.6 %ID/G | Kidney Uptake (LNCaP [3]; 4h): 26.6 ± 19.1 %ID/G | Tumour Uptake (LNCaP [3]; 4h): 14.5 ± 1.8 %ID/G | Kidney Uptake (LNCaP [3]; 24h): 0.6 ± 0.2 %ID/G | Tumour Uptake (LNCaP [3]; 24h): 10.9 ± 3.3 %ID/G | Tumour level (LNCaP [3]; after 5 days, ref Kuo et al. [30]): 7 %ID/g | Kidney Uptake (LNCaP [4]; 4h): 14.1 ± 3.1 %ID/G | Tumour Uptake (LNCaP [4]; 4h): 14.4 ± 1.1 %ID/G | Kidney Uptake (LNCaP [4]; 24h): 0.7 ± 0.1 %ID/G | Tumour Uptake (LNCaP [4]; 24h): 4.6 ± 0.6 %ID/G | Tumour level (LNCaP [4]; after 4 days, ref Kelly et al. [32]): 3.5 %ID/g | Kidney Uptake (LNCaP [5]; 1h): 137.2 ± 77.8 %ID/G | Tumour Uptake (LNCaP [5]; 1h): 11.2 ± 4.2 %ID/G | Kidney Uptake (LNCaP [5]; 24h): 2.1 ± 1.4 %ID/G | Tumour Uptake (LNCaP [5]; 24h): 10.6 ± 4.5 %ID/G | Kidney Uptake (PC-3 PIP [6]; 1h): 9.8 ± 1.4 %ID/G | Tumour Uptake (PC-3 PIP [6]; 1h): 44.2 ± 12.0 %ID/G | Kidney Uptake (PC-3 PIP [6]; 4h): 3.4 ± 3.2 %ID/G | Tumour Uptake (PC-3 PIP [6]; 4h): 56.0 ± 8.0 %ID/G | Kidney Uptake (PC-3 PIP [6]; 24h): 0.8 ± 0.9 %ID/G | Tumour Uptake (PC-3 PIP [6]; 24h): 37.3 ± 5.8 %ID/G | TI (PC-3 PIP [7]; 2 MBq (2 MBq/nmol)): 1.1 | TI (PC-3 PIP [7]; 5 MBq (5 MBq/nmol)): 1.8 | TI (RM1-PGLS [8]; 30 MBq (62 MBq/nmol)): 1.4 | TI (RM1-PGLS [8]; 60 MBq (62 MBq/nmol)): 1.9 | TI (RM1-PGLS [8]; 120 MBq (62 MBq/nmol)): 1.9 | Tumour level (tumour): 0.7 %ID/g | TI (LNCaP [9]): 4.1 | TI (PC-3 PIP [10]): 3.9
